Measurements published in ChEMBL document CHEMBL2029332, “Identification of binding specificity-determining features in protein families” (J Med Chem, 2012).

How the values were obtained:
[1] = target: Protein-tyrosine kinase 2-beta (Homo sapiens, UniProt Q14289); experiment: Inhibition of human recombinant PYK2 by ESI-MS analysis
[2] = target: T1, Tyrosine-protein kinase ZAP-70 (Homo sapiens, UniProt P43403); experiment: Inhibition of human recombinant ZAP70 using EEEEYEEEE as substrate by ESI-MS analysis
T1 sequence (P43403 whole entry): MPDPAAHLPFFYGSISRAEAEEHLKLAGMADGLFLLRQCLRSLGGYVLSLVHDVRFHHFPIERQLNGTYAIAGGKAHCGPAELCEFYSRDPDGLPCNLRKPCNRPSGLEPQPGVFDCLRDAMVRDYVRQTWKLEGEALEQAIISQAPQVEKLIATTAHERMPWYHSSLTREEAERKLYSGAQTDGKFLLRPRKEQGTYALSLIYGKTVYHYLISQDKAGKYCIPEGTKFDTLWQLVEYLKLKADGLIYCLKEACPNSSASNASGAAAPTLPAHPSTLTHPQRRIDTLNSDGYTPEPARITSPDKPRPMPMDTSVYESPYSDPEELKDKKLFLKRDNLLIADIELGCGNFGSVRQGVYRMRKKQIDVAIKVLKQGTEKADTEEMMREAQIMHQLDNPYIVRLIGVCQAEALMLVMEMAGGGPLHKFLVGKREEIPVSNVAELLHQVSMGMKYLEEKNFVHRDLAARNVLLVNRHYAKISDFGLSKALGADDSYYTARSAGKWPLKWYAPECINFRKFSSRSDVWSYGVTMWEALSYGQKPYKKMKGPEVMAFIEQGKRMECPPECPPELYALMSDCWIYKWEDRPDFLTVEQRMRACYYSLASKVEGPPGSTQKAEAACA

[3] = target: Cyclin-dependent kinase 2/cyclin E1 (Homo sapiens, UniProt P24941); experiment: Inhibition of human recombinant CDK2/CycE using HHASPRK as substrate by ESI-MS analysis; type: protein-complex assay

Sequence of Protein-tyrosine kinase 2-beta (Q14289 whole entry): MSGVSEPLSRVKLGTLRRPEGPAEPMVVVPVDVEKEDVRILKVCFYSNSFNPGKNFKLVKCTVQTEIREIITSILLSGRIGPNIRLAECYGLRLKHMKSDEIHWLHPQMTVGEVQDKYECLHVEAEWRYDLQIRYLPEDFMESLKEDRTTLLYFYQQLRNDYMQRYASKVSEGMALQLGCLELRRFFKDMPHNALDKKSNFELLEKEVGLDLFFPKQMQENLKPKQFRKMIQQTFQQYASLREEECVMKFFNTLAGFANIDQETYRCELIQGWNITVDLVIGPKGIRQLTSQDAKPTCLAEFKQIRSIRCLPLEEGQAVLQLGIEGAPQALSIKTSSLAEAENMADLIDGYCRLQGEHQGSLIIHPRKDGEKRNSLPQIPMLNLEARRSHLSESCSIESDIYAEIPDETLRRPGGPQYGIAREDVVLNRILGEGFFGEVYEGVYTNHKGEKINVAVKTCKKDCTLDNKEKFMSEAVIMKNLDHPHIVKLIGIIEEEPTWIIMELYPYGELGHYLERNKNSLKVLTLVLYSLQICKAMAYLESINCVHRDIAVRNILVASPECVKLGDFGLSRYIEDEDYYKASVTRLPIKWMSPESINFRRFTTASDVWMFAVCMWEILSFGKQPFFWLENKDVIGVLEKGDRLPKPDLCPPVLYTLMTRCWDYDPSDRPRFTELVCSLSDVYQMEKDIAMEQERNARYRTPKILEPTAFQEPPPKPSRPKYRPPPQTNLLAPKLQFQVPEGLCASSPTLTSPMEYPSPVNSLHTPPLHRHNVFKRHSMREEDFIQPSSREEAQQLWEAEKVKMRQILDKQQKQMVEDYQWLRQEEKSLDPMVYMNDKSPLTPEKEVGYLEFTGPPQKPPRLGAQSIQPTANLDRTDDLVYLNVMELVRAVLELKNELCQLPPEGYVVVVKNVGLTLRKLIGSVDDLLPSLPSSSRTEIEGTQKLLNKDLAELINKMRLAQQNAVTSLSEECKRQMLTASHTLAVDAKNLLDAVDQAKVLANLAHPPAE

| SMILES | Ki [1] | Ki [2] | Ki [3] |
| --- | --- | --- | --- |
| CCCCc1c(-c2ccc(OC)cc2)[nH]c2nccnc12 [ALOISINE] | 0.933 µM | 2.63 µM | 0.000525 µM |
| NS(=O)(=O)c1ccc(Nc2nc(OCC3CCCCC3)c3nc[nH]c3n2)cc1 | > 10 µM | > 10 µM | – |
| N#CC(C#N)=Cc1ccc(O)c(O)c1 [TYRPHOSTIN 23] | – | – | 0.617 µM |
| CN(C)c1ncnc2nc[nH]c12 [DIMETHYLADENINE] | > 10 µM | > 10 µM | 1.1 µM |

Now from value to molecule:

| Ki [1] | Ki [2] | Ki [3] | SMILES |
| --- | --- | --- | --- |
| > 10 µM | > 10 µM | – | NS(=O)(=O)c1ccc(N/N=C2\C(=O)Nc3ccc(Br)cc32)cc1 |
| 0.0105 µM | > 10 µM | 0.49 µM | Cc1[nH]c(/C=C2\C(=O)Nc3ccc(S(=O)(=O)N(C)c4cccc(Cl)c4)cc32)c(C)c1C(=O)N1CCN(C)CC1 |
| > 10 µM | 1.55 µM | 0.372 µM | O=C1C(C2=C3C(=Nc4ccccc43)/C(=C\c3ccc(O)cc3)C2=O)=C2C(=Nc3ccccc32)/C1=C\c1ccc(O)cc1 [SCYTONEMIN] |
